pIC50: −log10 of the molar value.
How the values were obtained:
[1] = target: T1, Full length DGKζ (in-house protein M1-V929) (Homo sapiens, UniProt Q13574); experiment: Biochemical DGK IC50 assay (ADP-Glo, lipid micelle substrate), DGKζ; details: 1 hour preincubation, 1 hour reaction, room temperature
T1 construct: His (N); TEV site (N); made in house; host or cells: Sf9 insect cells (Bac-to-Bac baculovirus)
Summary of the method: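 Full-length human DGKζ (M1-V929, His-TEV tagged, Sf9 baculovirus-expressed) with DAG/PS lipid micelle substrate in octyl glucoside, at room temperature in 50 mM HEPES, 10 mM MgCl2, 0.01 mM CaCl2 buffer.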

[2] = target: T2, Full length DGKα (D21-10BG, SignalChem) (Homo sapiens, UniProt P23743); experiment: Biochemical DGK IC50 assay (ADP-Glo, lipid micelle substrate), DGKα; details: 1 hour preincubation, 1 hour reaction, room temperature
T2 construct: Full length DGKα (D21-10BG, SignalChem); purchased SignalChem D21-10BG
T2 sequence (P23743 whole entry): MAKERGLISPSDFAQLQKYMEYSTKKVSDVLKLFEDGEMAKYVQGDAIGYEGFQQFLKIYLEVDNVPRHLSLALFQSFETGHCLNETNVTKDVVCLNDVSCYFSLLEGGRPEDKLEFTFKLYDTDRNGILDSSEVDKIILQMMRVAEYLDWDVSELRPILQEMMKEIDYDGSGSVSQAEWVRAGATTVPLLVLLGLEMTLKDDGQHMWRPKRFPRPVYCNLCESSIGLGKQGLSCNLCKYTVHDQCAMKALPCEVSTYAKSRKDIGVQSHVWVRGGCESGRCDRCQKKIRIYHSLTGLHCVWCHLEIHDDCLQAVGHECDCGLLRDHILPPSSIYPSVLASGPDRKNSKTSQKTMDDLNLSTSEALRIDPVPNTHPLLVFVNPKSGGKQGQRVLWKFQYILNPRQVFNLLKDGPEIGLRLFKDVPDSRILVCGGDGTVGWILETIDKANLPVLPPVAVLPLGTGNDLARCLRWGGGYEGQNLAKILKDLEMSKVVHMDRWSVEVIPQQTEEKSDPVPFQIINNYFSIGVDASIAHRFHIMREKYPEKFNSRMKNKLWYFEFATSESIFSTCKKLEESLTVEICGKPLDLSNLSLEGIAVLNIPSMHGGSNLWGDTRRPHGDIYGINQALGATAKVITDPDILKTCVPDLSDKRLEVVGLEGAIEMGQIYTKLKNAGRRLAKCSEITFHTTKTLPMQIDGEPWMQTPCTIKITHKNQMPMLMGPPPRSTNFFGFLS
Summary of the method: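 Full-length human DGKα with DAG/PS lipid micelle substrate (in octyl glucoside buffer), reacted 1 h at room temperature in 50 mM HEPES, 10 mM MgCl2, 0.01 mM CaCl2, 0.1 mM Na3VO4, 0.01% BSA, 0.005% Tween-20. ADP formed read by ADP-Glo luminescence; IC50 from inhibition across increasing compound concentrations.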

T1 sequence (Q13574 1-929 isoform Q13574-4): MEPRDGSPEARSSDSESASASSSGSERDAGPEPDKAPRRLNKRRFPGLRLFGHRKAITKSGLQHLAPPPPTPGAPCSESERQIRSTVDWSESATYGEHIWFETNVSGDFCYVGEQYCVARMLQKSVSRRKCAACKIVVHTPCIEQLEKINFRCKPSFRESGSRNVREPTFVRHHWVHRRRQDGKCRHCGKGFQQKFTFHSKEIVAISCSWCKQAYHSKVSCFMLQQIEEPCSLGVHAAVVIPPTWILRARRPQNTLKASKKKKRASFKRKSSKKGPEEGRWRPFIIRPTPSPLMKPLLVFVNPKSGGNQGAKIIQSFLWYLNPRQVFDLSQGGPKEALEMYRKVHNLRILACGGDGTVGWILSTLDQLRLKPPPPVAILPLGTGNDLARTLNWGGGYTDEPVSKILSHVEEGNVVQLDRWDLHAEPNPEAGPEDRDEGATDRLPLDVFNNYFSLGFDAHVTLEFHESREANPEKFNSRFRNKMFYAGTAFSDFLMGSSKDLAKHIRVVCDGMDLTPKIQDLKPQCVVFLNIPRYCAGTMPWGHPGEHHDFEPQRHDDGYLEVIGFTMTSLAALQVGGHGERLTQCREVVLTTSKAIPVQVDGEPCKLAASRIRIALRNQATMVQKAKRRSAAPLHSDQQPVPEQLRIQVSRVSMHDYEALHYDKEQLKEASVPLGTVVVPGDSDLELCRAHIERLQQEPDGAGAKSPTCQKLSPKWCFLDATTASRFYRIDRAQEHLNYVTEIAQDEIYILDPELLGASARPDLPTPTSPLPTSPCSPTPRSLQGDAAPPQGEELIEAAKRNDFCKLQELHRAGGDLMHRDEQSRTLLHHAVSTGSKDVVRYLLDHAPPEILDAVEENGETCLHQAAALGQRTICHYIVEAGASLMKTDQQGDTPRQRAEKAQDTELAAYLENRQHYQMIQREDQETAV

Row | pIC50 [1] | pIC50 [2] | SMILES
1 | 6.77 | 3.88 | CCn1c(CC#N)nc2c(N3C[C@@H](C)N(C(C)c4ccc5c(c4Cl)OC(C)(C)O5)C[C@@H]3C)nc(=O)n(C)c21 (single isomer, unassigned) [Compound A172a]
2 | 8.10 | 3.94 | CCn1c(CC#N)nc2c(N3C[C@@H](C)N(C(C)c4ccc5c(c4Cl)OC(C)(C)O5)C[C@@H]3C)nc(=O)n(C)c21 (single isomer, unassigned) [Compound A172b]
3 | 7.92 | 4.29 | CCn1c(CC#N)nc2c(N3C[C@@H](C)N(C(C)c4cc(F)c5c(c4)OC(C)(C)O5)C[C@@H]3C)nc(=O)n(C)c21 (single isomer, unassigned) [Compound A173a]
4 | 6.39 | 4.08 | CCn1c(CC#N)nc2c(N3C[C@@H](C)N(C(C)c4cc(F)c5c(c4)OC(C)(C)O5)C[C@@H]3C)nc(=O)n(C)c21 (single isomer, unassigned) [Compound A173b]
5 | 5.99 | 4.29 | CCn1c(CC#N)nc2c(N3C[C@@H](C)N(C(C)c4cc5c(cc4F)OC(C)(C)O5)C[C@@H]3C)nc(=O)n(C)c21 (single isomer, unassigned) [Compound A174a]
6 | 7.16 | 4.51 | CCn1c(CC#N)nc2c(N3C[C@@H](C)N(C(C)c4cc5c(cc4F)OC(C)(C)O5)C[C@@H]3C)nc(=O)n(C)c21 (single isomer, unassigned) [Compound A174b]
7 | 6.54 | 4.43 | CCn1c(CC#N)nc2c(N3C[C@@H](C)N(C(C)c4ccc5c(c4F)OC(C)(C)O5)C[C@@H]3C)nc(=O)n(C)c21 (single isomer, unassigned) [Compound A175a]
8 | 8.40 | 4.67 | CCn1c(CC#N)nc2c(N3C[C@@H](C)N(C(C)c4ccc5c(c4F)OC(C)(C)O5)C[C@@H]3C)nc(=O)n(C)c21 (single isomer, unassigned) [Compound A175b]
9 | 7.40 | 4.88 | CCn1c(CC#N)nc2c(N3C[C@@H](C)N(C(C)c4c(F)cc5c(c4F)OC(C)(C)O5)C[C@@H]3C)nc(=O)n(C)c21 (single isomer, unassigned) [Compound A176a]
10 | 8.15 | 5.14 | CCn1c(CC#N)nc2c(N3C[C@@H](C)N(C(C)c4c(F)cc5c(c4F)OC(C)(C)O5)C[C@@H]3C)nc(=O)n(C)c21 (single isomer, unassigned) [Compound A176b]
11 | 6.09 | 3.92 | CCn1c(CC#N)nc2c(N3C[C@@H](C)N(C(C)c4ccc(F)c5c4OC(C)(C)O5)C[C@@H]3C)nc(=O)n(C)c21 (single isomer, unassigned) [Compound A185a]
12 | 7.70 | 4.08 | CCn1c(CC#N)nc2c(N3C[C@@H](C)N(C(C)c4ccc(F)c5c4OC(C)(C)O5)C[C@@H]3C)nc(=O)n(C)c21 (single isomer, unassigned) [Compound A185b]
13 | 8.52 | < 3.82 | CCn1c(CC#N)nc2c(N3C[C@@H](C)N(C(C)c4ccc5c(c4F)OC(C)(C)O5)C[C@@H]3C)c(F)c(=O)n(C)c21 (single isomer, unassigned) [Compound A190a]
14 | 7.39 | 4.42 | CCn1c(CC#N)nc2c(N3C[C@@H](C)N(C(C)c4ccc5c(c4F)OC(C)(C)O5)C[C@@H]3C)c(F)c(=O)n(C)c21 (single isomer, unassigned) [Compound A190b]
15 | 8.15 | 5.40 | CC(c1ccc2nccnc2c1)N1C[C@H](C)N(c2cc(=O)n(C)c3sc(CC#N)nc23)C[C@H]1C (single isomer, unassigned) [Compound A194a]
16 | 6.06 | 5.15 | CC(c1ccc2nccnc2c1)N1C[C@H](C)N(c2cc(=O)n(C)c3sc(CC#N)nc23)C[C@H]1C (single isomer, unassigned) [Compound A194b]

The remaining lines, values behind:

Row | SMILES | pIC50 [1] | pIC50 [2]
17 | CCn1c(CC#N)nc2c(N3C[C@@H](C)N(C(C)c4ccc5c(c4)OC4(CCC4)O5)C[C@@H]3C)nc(=O)n(C)c21 (single isomer, unassigned) [Compound A169b] | 6.34 | 4.11
18 | CC(c1ccc2nccnc2c1)N1C[C@H](C)N(c2cc(=O)n(C)c3c2nc(CC#N)n3C)C[C@H]1C (stereo partly drawn) [Compound A1, 2-(7-((2S,5R)-2,5-dimethyl-4-(1-(quinoxalin-6-yl)ethyl)piperazin-1-yl)-3,4-dimethyl-5-oxo-4,5-dihydro-3H-imidazo[4,5-b]pyridin-2-yl)acetonitrile] | 7.72 | 4.69
19 | CC(c1ccc(F)cc1C(F)(F)F)N1C[C@H](C)N(c2cc(=O)n(C)c3c2nc(CC#N)n3C)C[C@H]1C (stereo partly drawn) [Compound A2, 2-(7-((2S,5R)-4-(1-(4-fluoro-2-(trifluoromethyl)phenyl)ethyl)-2,5-dimethylpiperazin-1-yl)-3,4-dimethyl-5-oxo-4,5-dihydro-3H-imidazo[4,5-b]pyridin-2-yl)acetonitrile] | 7.04 | < 3.82
20 | CC(c1ccc(F)cc1C(F)(F)F)N1C[C@H](C)N(c2cc(=O)n(C)c3[nH]c(CC#N)nc23)C[C@H]1C (stereo partly drawn) [Compound A9, 2-(7-((2S,5R)-4-(1-(4-fluoro-2-(trifluoromethyl)phenyl)ethyl)-2,5-dimethylpiperazin-1-yl)-4-methyl-5-oxo-4,5-dihydro-3H-imidazo[4,5-b]pyridin-2-yl)acetonitrile] | 6.58 | < 5.00
21 | COC[C@H]1CN(C(C)c2ccc(F)cc2C(F)(F)F)[C@H](C)CN1c1nc(=O)n(C)c2c1nc(CC#N)n2C (stereo partly drawn) [Compound A10, 2-(6-((2R,5R)-4-(1-(4-fluoro-2-(trifluoromethyl)phenyl)ethyl)-2-(methoxymethyl)-5-methylpiperazin-1-yl)-3,9-dimethyl-2-oxo-3,9-dihydro-2H-purin-8-yl)acetonitrile] | 7.60 | < 5.00
22 | COc1cc(F)ccc1C(C)N1C[C@H](C)N(c2c(F)c(=O)n(C)c3c2nc(CC#N)n3C)C[C@H]1C (stereo partly drawn) [Compound A16, 2-(6-fluoro-7-((2S,5R)-4-(1-(4-fluoro-2-methoxyphenyl)ethyl)-2,5-dimethylpiperazin-1-yl)-3,4-dimethyl-5-oxo-4,5-dihydro-3H-imidazo[4,5-b]pyridin-2-yl)acetonitrile] | 7.62 | 4.24
23 | CCn1c(CC#N)nc2c(N3C[C@@H](C)N(C(C)c4ccc5c(c4)OC(C)(C)CO5)C[C@@H]3C)c(F)c(=O)n(C)c21 (stereo partly drawn) [Compound A20, 2-(7-((2S,5R)-4-(1-(3,3-dimethyl-2,3-dihydrobenzo[b][1,4]dioxin-6-yl)ethyl)-2,5-dimethylpiperazin-1-yl)-3-ethyl-6-fluoro-4-methyl-5-oxo-4,5-dihydro-3H-imidazo[4,5-b]pyridin-2-yl)acetonitrile] | 8.30 | 4.03
24 | CCn1c(CC#N)nc2c(N3C[C@@H](C)N(C(C)c4ccc5c(n4)OC(C)(C)CO5)C[C@@H]3C)c(F)c(=O)n(C)c21 (stereo partly drawn) [Compound A21, 2-(7-((2S,5R)-4-(1-(3,3-dimethyl-2,3-dihydro-[1,4]dioxino[2,3-b]pyridin-6-yl)ethyl)-2,5-dimethylpiperazin-1-yl)-3-ethyl-6-fluoro-4-methyl-5-oxo-4,5-dihydro-3H-imidazo[4,5-b]pyridin-2-yl)acetonitrile] | 7.21 | < 3.82
25 | CC(c1ccc(F)cc1OC(F)F)N1C[C@H](C)N(c2nc(=O)n(C)c3c2nc(CC#N)n3C)C[C@H]1C (stereo partly drawn) [Compound A25, 2-(6-((2S,5R)-4-(1-(2-(difluoromethoxy)-4-fluorophenyl)ethyl)-2,5-dimethylpiperazin-1-yl)-3,9-dimethyl-2-oxo-3,9-dihydro-2H-purin-8-yl)acetonitrile] | 7.82 | 4.43
26 | COC(C)c1cc(F)ccc1C(C)N1C[C@H](C)N(c2nc(=O)n(C)c3c2nc(CC#N)n3C)C[C@H]1C (stereo partly drawn) [Compound A28, 2-(6-((2S,5R)-4-(1-(4-fluoro-2-(1-methoxyethyl)phenyl)ethyl)-2,5-dimethylpiperazin-1-yl)-3,9-dimethyl-2-oxo-3,9-dihydro-2H-purin-8-yl)acetonitrile] | 8.52 | 4.01
27 | CC(c1ccc(F)cc1C(F)F)N1C[C@H](C)N(c2nc(=O)n(C)c3c2nc(CC#N)n3C)C[C@H]1C (stereo partly drawn) [Compound A30, 2-(6-((2S,5R)-4-(1-(2-(difluoromethyl)-4-fluorophenyl)ethyl)-2,5-dimethylpiperazin-1-yl)-3,9-dimethyl-2-oxo-3,9-dihydro-2H-purin-8-yl)acetonitrile] | 7.85 | 4.35
28 | CC(c1ccc(F)cc1OC(C)(F)F)N1C[C@H](C)N(c2nc(=O)n(C)c3c2nc(CC#N)n3C)C[C@H]1C (stereo partly drawn) [Compound A31, 2-(6-((2S,5R)-4-(1-(2-(1,1-difluoroethoxy)-4-fluorophenyl)ethyl)-2,5-dimethylpiperazin-1-yl)-3,9-dimethyl-2-oxo-3,9-dihydro-2H-purin-8-yl)acetonitrile] | 8.40 | 3.96
29 | [2H]C([2H])([2H])n1c(CC#N)nc2c(N3C[C@@H](C)N(C(C)c4ccc(F)cc4C(F)(F)F)C[C@@H]3C)nc(=O)n(C([2H])([2H])[2H])c21 (stereo partly drawn) [Compound A36, 2-(6-((2S,5R)-4-(1-(4-fluoro-2-(trifluoromethyl)phenyl)ethyl)-2,5-dimethylpiperazin-1-yl)-3,9-bis(methyl-d3)-2-oxo-3,9-dihydro-2H-purin-8-yl)acetonitrile] | 7.77 | 3.98

Source: patent US20260125378A2, “Heterocyclic Compounds” (BeOne Medicines I GmbH, priority 2023, published 2026)
